Assay results: patent publication US20090214696A1, “Lycopene Incorporation Into Egg Yolks” (priority 2005, published 2009)
Like-named read-outs stand apart in the source and are kept apart here.

Assays:
[1] = Study 2: Roche Yolk Colour Fan; format: in vivo, Second Cycle Hyline W36 Hens; details: 880 or 5140 mg lycopene/kg diet or 7.8 mg Lutein/kg diet dispersed in H2O, 19 d
Source text: (§1) Commercial laying hen diet (corn, soybean, from NuWest) was supplemented with lycopene and lutein (DSM). Second Cycle Hyline W36 Hens were housed in standard lay cages. Dependant Variables: Yolks and Plasma. Lipid Extraction was done as previously described (Koutsos at al. 2003 J Nutr 133:1132-1138). A UV/VIS spectrophotometer was use to measure absorbance at 464 nm for Lutein and 352 nm for Lycopene. For Studies 2 and 3, the Roche Colour Score was taken of egg yolks using a blind analysis. The following statistics were calculated: ANOVA for main effect of diet+days on diet and interactions and t-test for differences between means. Results were significant at p<0.05.
(§2) In Study 2, 5 hens were housed per cage and 3 cages were given treatment for 19 d on a diet at 100 g diet/bird*d. Lycopene and Lutein levels were increased and dispersed in H2O: Diet 1: Negative Control+3000 ml H2O; Diet 2: Negative Control+880 mg lycopene/kg diet +3000 ml H2O; Diet 3: Negative Control+5140 mg lycopene/kg diet+3000 ml H2O; Diet 4: Negative Control+7.8 mg Lutein/kg diet+3000 ml H2O. The Roche Yolk Colour Fan was used (FIG. 4, 5). […] Diet had no effect on Yolk Lutein and/or Lycopene (p>0.20 for all). Diet on Plasma lycopene had no effect (p=0.17). Plasma Lutein+Lycopene had no effect (p=0.07). Diet on Plasma Lutein: (p=0.04).

[2] = Study 1: yolk and plasma lycopene/lutein by UV/VIS spectrophotometer; format: in vivo, second cycle laying hens (Hyline W36); details: Diet 4: 48 mg lycopene + 6.5 mg Lutein/kg diet, 19 d
Protocol: Lycopene is a carotenoid with potential anti-cancer functions. […] Therefore, second cycle laying hens (Hyline W36) were examined for their ability to absorb dietary lycopene and incorporate lycopene into egg yolks. A completely randomized design was used in which 3 levels of dietary lycopene (0, 1.0 and 5.7 mg/bird*day) or lycopene +lutein (5.7 mg lycopene+0.8 mg lutein/bird*day) were incorporated into the birds normal diet. Birds were housed in commercial cages with ad libitum access to water (n=3 cages/diet; 5 birds/cage), and were fed 120 g diet/bird*day. […] Future trials will examine increased dietary lycopene levels and routes of administration.
as §1, with “p<0.05. […]” for “p<0.05.”

[3] = egg vs vegetable sources; cited from earlier work
[4] = Study 2: yolk and plasma lycopene/lutein by UV/VIS spectrophotometer; format: in vivo, Second Cycle Hyline W36 Hens
Source text: as §1, §2

[5] = Yolk lycopene concentration by HPLC in eggs from hens fed lycopene (Example 1 trial); format: in vivo, White Leghorn laying hens
Source text: (§3) The purpose of this trial was to examine the ability of the laying hen to deposit lycopene into the egg yolk for the purpose of supplementing human diets with additional lycopene. Control egg-laying hens were fed a 100 gram per bird basal diet for 15 days described in Table 1. Test hens were fed the basal diet supplemented with varying amounts of lycopene.
(§4) The California Polytechnic State University Animal Care and Use Committee approved all protocols. Using a completely randomized design, first-cycle White Leghorn (Hyline W36 strain, 23 wks old) laying hens from the Cal Poly University flock were randomly assigned to one of three dietary lycopene levels. Birds were fed a basal diet formulated to meet or exceed all nutrient requirements for laying hens (National Research Council 1994 Nutrient requirements of Poultry, Ninth Revised Edition, National Academy Press, Washington, D.C.) plus either 0, 65, 257, or 650 mg lycopene/kg diet; the lycopene provided was the all-trans isomer. Dietary levels were chosen based on the amount of lycopene contained in an uncooked 100 g tomato, as well as data concerning the absorption of lutein by laying hens (Leeson, S. and Caston, L. 2004 Poultry Science 83:1709-1712). Lycopene was supplied in a 5% powder form attached to a gelatin molecule. In order for lycopene to be absorbed from this source, water (60° C.) was used to disperse the lycopene prior to dietary addition.
Hens were housed in commercial-type cages (n=3 cages/diet, 4 birds/cage, 135 sq. inches/bird) with ad libitum access to water. Hens were fed their assigned diets at 100 g/bird*day for 15 days. Eggs were gathered daily, and after 15 days of dietary feeding, analysis of egg lycopene levels were completed by Roche color score (a standardized set of color swatches corresponding to a number from 1-15) and by HPLC analysis (DSM International, Basel Switzerland).

[6] = Roche yolk color score of eggs from hens fed lycopene (Example 1 trial); format: in vivo, White Leghorn laying hens; details: 65, 257 or 650 mg lycopene/kg diet vs 0 mg, 15 days, p<0.05
Source text: as §3
as §4, with “In order for lycopene to be absorbed from this source, water (60° C.) was used to disperse the lycopene prior to dietary addition.” left out

[7] = Study 1: Roche color fan of egg yolks; format: in vivo, second cycle laying hens (Hyline W36); details: 0, 1.0 and 5.7 mg lycopene/bird*day, after 18 d
[8] = Study 3: Roche Yolk Colour Fan; format: in vivo, Second Cycle Hyline W36 Hens; details: control diet vs diets >1285 mg Lycopene, 15 d
Source text: as §1
(§5) In Study 3, 5 hens were housed per cage and 1 cage received treatment for 15 d on diet at 100 g diet/bird*d. Lycopene levels were increased and dispersed in H2O: Diet 1: Negative Control+3000 ml H2O; Diet 2: Negative Control+880 mg lycopene/kg diet+3000 ml H2O; Diet 3: Negative Control+1285 mg lycopene/kg diet+3000 ml H2O; Diet 4: Negative Control +2570 mg lycopene/kg diet+3000 ml H2O; Diet 5: Negative Control+3855 mg lycopene/kg diet+3000 ml H2O; Diet 6: Negative Control+5140 mg lycopene/kg diet+3000 ml H2O; Diet 7: Negative Control+6425 mg lycopene/kg diet+3000 ml H2O; Diet 8: Diet 5+7.8 mg Lutein/kg diet; Diet 9: Diet 7+7.8 mg Lutein/kg diet.

[9] = acute toxicity, rats; cited from earlier work
[10] = acute toxicity, mice; cited from earlier work
[11] = Study 3: yolk and plasma lycopene/lutein by UV/VIS spectrophotometer; format: in vivo, Second Cycle Hyline W36 Hens
Source text: as §1, §5

With `CC1=C[C@H](O)CC(C)(C)[C@H]1/C=C/C(C)=C/C=C/C(C)=C/C=C/C=C(C)/C=C/C=C(C)/C=C/C1=C(C)C[C@@H](O)CC1(C)C` [lutein] the “Roche Colour Fan score” value [1] was “no effect”, the Yolk lutein ([2]; p<0.05) was “increased” and the Plasma lutein ([2]; p=0.36) was “no increase”. The “Absorbance from egg relative to absorbance from vegetable sources” value [3] was “approximately 2.12 times” and the “Yolk lutein” value ([4]; effect of diet, Study 2, p>0.20) was “no effect”.
With `CC(C)=CCC/C(C)=C/C=C/C(C)=C/C=C/C(C)=C/C=C/C=C(C)/C=C/C=C(C)/C=C/C=C(\C)CCC=C(C)C` [lycopene] the “Yolk lycopene levels (HPLC)” value ([5]; 257 or 650 mg lycopene/kg diet vs 65 mg/kg diet, 15 days, p<0.05) was “significantly greater lycopene levels”, the concentration at 15 days ([5]; female, White Leghorn (Hyline W36), chicken (laying hen), egg yolk, oral, based upon HPLC data, large egg, read-out: Maximal concentration of yolk lycopene (converted)) was 4710 ng/g and the “Dietary level for optimal lycopene incorporation into egg (regression analysis)” value ([5]; regression of yolk lycopene on dietary lycopene) was 420 mg/kg diet. The “Roche yolk color score” value [6] was “significantly greater yolk color score”, the “Roche Colour Fan score” value [1] was 5140 mg>0 mg and the “Egg yolk pigmentation (Roche color fan)” value [7] was “no detectable change in pigmentation”. The “Yolk pigment (Roche color scores)” value [8] was “consistent difference in yolk pigment”, the LD50 [9] was 10,000 mg/kg body weight and the LD50 [10] was 3000 mg lycopene/kg body weight. The “Plasma Lutein+Lycopene” value ([4]; in vivo) was “no effect”, the Plasma lycopene ([4]; in vivo) was “no effect” and the “Yolk Lycopene” value ([4]; in vivo) was “no effect”. For the same compound, the “Yolk Lycopene” value ([11]; effect of diet, Study 3, p<0.01, Diets 2, 3 = 880, 1285 mg lycopene/kg diet) was “Diet 2, 3>1, 4, 5, 6, 8, 9”, the “Yolk Lutein+Lycopene” value ([11]; effect of diet, Study 3, p=0.94) was “no effect” and the “Plasma Lutein and/or Lycopene” value ([11]; in vivo) was “no effect”.
